Results as given in ChEMBL document CHEMBL4699440, “Comprehensive review on the anti-bacterial activity of 1,2,3-triazole hybrids” (Eur J Med Chem, 2019).
≈ marks a conversion by molar mass, not a printed value. One block for each compound: values may come before it.

How the values were obtained:
Type in all cases: functional
[1] = system: Bacillus cereus; test: Antibacterial activity against Bacillus cereus by agar dilution method
[2] = system: Staphylococcus aureus; test: Antibacterial activity against Staphylococcus aureus by agar dilution method
[3] = system: Pseudomonas aeruginosa; test: Antibacterial activity against Pseudomonas aeruginosa by agar dilution method
[4] = system: Escherichia coli; test: Antibacterial activity against Escherichia coli by agar dilution method
[5] = system: Curvularia lunata; test: Antifungal activity against Curvularia lunata NCIM 1131 incubated for 48 hrs
[6] = system: Penicillium chrysogenum; test: Antifungal activity against Penicillium chrysogenum NCIM 723 incubated for 48 hrs
[7] = system: Escherichia coli; test: Antibacterial activity against Escherichia coli NCIM 2256 incubated for 24 hrs
[8] = system: Sphingomonas paucimobilis; test: Antibacterial activity against Flavobacterium devorans ATCC 10829 incubated for 24 hrs
[9] = system: Staphylococcus aureus; test: Antibacterial activity against Staphylococcus aureus ATCC 29737 incubated for 24 hrs
[10] = system: Aspergillus niger; test: Antifungal activity against Aspergillus niger NCIM 1196 incubated for 48 hrs
[11] = system: Micrococcus luteus; test: Antibacterial activity against Micrococcus Luteus ATCC 398 incubated for 24 hrs
[12] = system: Pseudomonas fluorescens; test: Antibacterial activity against Pseudomonas fluorescens NCIM 2173 incubated for 24 hrs
[13] = system: Bacillus cereus; test: Antibacterial activity against Bacillus cereus ATCC 6630 incubated for 24 hrs
[14] = system: Escherichia coli; test: Antibacterial activity against Escherichia coli ATCC 25922 incubated for 24 hrs by tube dilution method
[15] = system: Klebsiella pneumoniae; test: Antibacterial activity against Klebsiella pneumoniae ATCC 15380 incubated for 24 hrs by tube dilution method
[16] = system: Pseudomonas aeruginosa; test: Antibacterial activity against Pseudomonas aeruginosa ATCC 12454 incubated for 24 hrs by tube dilution method
[17] = system: Streptococcus pyogenes; test: Antibacterial activity against Streptococcus pyogenes ATCC 35552 incubated for 24 hrs by tube dilution method
[18] = system: Staphylococcus aureus; test: Antibacterial activity against Staphylococcus aureus ATCC 25923 incubated for 24 hrs by tube dilution method
[19] = system: Staphylococcus aureus; test: Antibacterial activity against Staphylococcus aureus RCMB 010025 by broth dilution method
[20] = system: Escherichia coli; test: Antibacterial activity against Escherichia coli RCMB 010052 by broth dilution method
[21] = system: Streptococcus pneumoniae; test: Antibacterial activity against Streptococcus pneumoniae RCMB 010010 by broth dilution method
[22] = system: Pseudomonas aeruginosa; test: Antibacterial activity against Pseudomonas aeruginosa RCMB 010043 by broth dilution method
[23] = system: Bacillus subtilis; test: Antibacterial activity against Bacillus subtilis RCMB 010067 by broth dilution method
[24] = system: Klebsiella pneumoniae; test: Antibacterial activity against Klebsiella pneumonia RCMB 010058 by broth dilution method

SMILES: COc1ccc(-c2nn(-c3ccccc3)cc2/C=N/NC(=O)c2cccc(-n3cc(-c4ccccc4)nn3)c2)cc1OC
MIC [1]: 2 µg/mL (≈ 3.51 µM)
MIC [2]: 2 µg/mL (≈ 3.51 µM)
MIC [3]: 2 µg/mL (≈ 3.51 µM)
MIC [4]: 2 µg/mL (≈ 3.51 µM)

SMILES: Cc1cc(OCc2cn(Cc3ccc([N+](=O)[O-])cc3)nn2)cc2oc(=O)ccc12
MIC [5]: 2 µg/mL (≈ 5.1 µM)
MIC [6]: 2 µg/mL (≈ 5.1 µM)
MIC [7]: 2 µg/mL (≈ 5.1 µM)
MIC [8]: 2 µg/mL (≈ 5.1 µM)
MIC [9]: 2 µg/mL (≈ 5.1 µM)
MIC [10]: 2 µg/mL (≈ 5.1 µM)
MIC [11]: 2 µg/mL (≈ 5.1 µM)
MIC [12]: 2 µg/mL (≈ 5.1 µM)
MIC [13]: 2 µg/mL (≈ 5.1 µM)

SMILES: Cc1cc(C)cc(Cn2cc(COc3ccccc3-c3nn(-c4ccccc4)cc3C=O)nn2)c1
MIC [14]: 5.5 µg/mL (≈ 11.9 µM)
MIC [15]: 5.5 µg/mL (≈ 11.9 µM)
MIC [16]: 5.5 µg/mL (≈ 11.9 µM)
MIC [17]: 5.5 µg/mL (≈ 11.9 µM)
MIC [18]: 5.5 µg/mL (≈ 11.9 µM)

SMILES: CCOCCSc1nnc(-c2nnn(-c3ccccc3Cl)c2-c2nnc(SCCOCC)o2)o1
MIC [19]: 31.2 µg/mL (≈ 59.6 µM)
MIC [20]: 31.2 µg/mL (≈ 59.6 µM)
MIC [21]: 31.2 µg/mL (≈ 59.6 µM)
MIC [22]: 31.2 µg/mL (≈ 59.6 µM)
MIC [23]: 31.2 µg/mL (≈ 59.6 µM)
MIC [24]: 31.2 µg/mL (≈ 59.6 µM)

SMILES: O=c1cc(OCc2cn(Cc3ccc(Br)cc3)nn2)c2ccccc2o1
MIC [5]: 2 µg/mL (≈ 4.85 µM)
MIC [6]: 2 µg/mL (≈ 4.85 µM)
MIC [7]: 2 µg/mL (≈ 4.85 µM)
MIC [8]: 2 µg/mL (≈ 4.85 µM)
MIC [9]: 2 µg/mL (≈ 4.85 µM)
MIC [10]: 2 µg/mL (≈ 4.85 µM)
MIC [11]: 2 µg/mL (≈ 4.85 µM)
MIC [12]: 2 µg/mL (≈ 4.85 µM)
MIC [13]: 2 µg/mL (≈ 4.85 µM)

SMILES: COc1ccc(-c2nn(-c3ccccc3)cc2/C=N/NC(=O)c2cccc(-n3cc(-c4ccccc4)nn3)c2)cc1
MIC [1]: 2 µg/mL (≈ 3.71 µM)
MIC [2]: 2 µg/mL (≈ 3.71 µM)
MIC [3]: 2 µg/mL (≈ 3.71 µM)
MIC [4]: 2 µg/mL (≈ 3.71 µM)

SMILES: O=Cc1cn(-c2ccccc2)nc1-c1ccccc1OCc1cn(Cc2ccccc2)nn1
MIC [14]: 5.5 µg/mL (≈ 12.6 µM)
MIC [15]: 5.5 µg/mL (≈ 12.6 µM)
MIC [16]: 5.5 µg/mL (≈ 12.6 µM)
MIC [17]: 5.5 µg/mL (≈ 12.6 µM)
MIC [18]: 5.5 µg/mL (≈ 12.6 µM)

SMILES: Clc1ccc(COC(Cn2ccnc2)c2ccc(Cl)cc2Cl)c(Cl)c1 (stereo not given) [MICONAZOLE]
MIC [5]: 16 µg/mL (≈ 38.4 µM)
MIC [6]: 16 µg/mL (≈ 38.4 µM)
MIC [10]: 16 µg/mL (≈ 38.4 µM)

SMILES: CC(=O)OCCSc1nnc(-c2nnn(-c3ccccc3Cl)c2-c2nnc(SCCOC(C)=O)o2)o1
MIC [19]: 31.2 µg/mL (≈ 56.6 µM)
MIC [20]: 31.2 µg/mL (≈ 56.6 µM)
MIC [21]: 31.2 µg/mL (≈ 56.6 µM)
MIC [22]: 31.2 µg/mL (≈ 56.6 µM)
MIC [23]: 31.2 µg/mL (≈ 56.6 µM)
MIC [24]: 31.2 µg/mL (≈ 56.6 µM)

SMILES: Cc1cc(OCc2cn(Cc3cccc([N+](=O)[O-])c3)nn2)cc2oc(=O)ccc12
MIC [5]: 2 µg/mL (≈ 5.1 µM)
MIC [6]: 2 µg/mL (≈ 5.1 µM)
MIC [7]: 2 µg/mL (≈ 5.1 µM)
MIC [8]: 2 µg/mL (≈ 5.1 µM)
MIC [9]: 2 µg/mL (≈ 5.1 µM)
MIC [10]: 2 µg/mL (≈ 5.1 µM)
MIC [11]: 2 µg/mL (≈ 5.1 µM)
MIC [12]: 2 µg/mL (≈ 5.1 µM)
MIC [13]: 2 µg/mL (≈ 5.1 µM)

SMILES: Cc1cc(OCc2cn(Cc3ccc(Br)cc3)nn2)cc2oc(=O)ccc12
MIC [5]: 2 µg/mL (≈ 4.69 µM)
MIC [6]: 2 µg/mL (≈ 4.69 µM)
MIC [7]: 2 µg/mL (≈ 4.69 µM)
MIC [8]: 2 µg/mL (≈ 4.69 µM)
MIC [9]: 2 µg/mL (≈ 4.69 µM)
MIC [10]: 2 µg/mL (≈ 4.69 µM)
MIC [11]: 2 µg/mL (≈ 4.69 µM)
MIC [12]: 2 µg/mL (≈ 4.69 µM)
MIC [13]: 2 µg/mL (≈ 4.69 µM)

Now from value to compound:

MIC [1]: 2 µg/mL (≈ 3.61 µM)
MIC [2]: 2 µg/mL (≈ 3.61 µM)
MIC [3]: 2 µg/mL (≈ 3.61 µM)
MIC [4]: 2 µg/mL (≈ 3.61 µM)
SMILES: O=C(N/N=C/c1cn(-c2ccccc2)nc1-c1ccc([N+](=O)[O-])cc1)c1cccc(-n2cc(-c3ccccc3)nn2)c1

MIC [5]: 2 µg/mL (≈ 5.24 µM)
MIC [6]: 2 µg/mL (≈ 5.24 µM)
MIC [7]: 2 µg/mL (≈ 5.24 µM)
MIC [8]: 2 µg/mL (≈ 5.24 µM)
MIC [9]: 2 µg/mL (≈ 5.24 µM)
MIC [10]: 2 µg/mL (≈ 5.24 µM)
MIC [11]: 2 µg/mL (≈ 5.24 µM)
MIC [12]: 2 µg/mL (≈ 5.24 µM)
MIC [13]: 2 µg/mL (≈ 5.24 µM)
SMILES: Cc1cc(OCc2cn(Cc3ccc(Cl)cc3)nn2)cc2oc(=O)ccc12

MIC [1]: 2 µg/mL (≈ 3.79 µM)
MIC [2]: 2 µg/mL (≈ 3.79 µM)
MIC [3]: 2 µg/mL (≈ 3.79 µM)
MIC [4]: 2 µg/mL (≈ 3.79 µM)
SMILES: O=C(N/N=C/c1cn(-c2ccccc2)nc1-c1ccc(F)cc1)c1cccc(-n2cc(-c3ccccc3)nn2)c1

MIC [14]: 5.5 µg/mL (≈ 10.9 µM)
MIC [15]: 5.5 µg/mL (≈ 10.9 µM)
MIC [16]: 5.5 µg/mL (≈ 10.9 µM)
MIC [17]: 5.5 µg/mL (≈ 10.9 µM)
MIC [18]: 5.5 µg/mL (≈ 10.9 µM)
SMILES: O=Cc1cn(-c2ccccc2)nc1-c1cc(Cl)ccc1OCc1cn(Cc2cccc(Cl)c2)nn1

MIC [14]: 5.5 µg/mL (≈ 11.7 µM)
MIC [15]: 5.5 µg/mL (≈ 11.7 µM)
MIC [16]: 5.5 µg/mL (≈ 11.7 µM)
MIC [17]: 5.5 µg/mL (≈ 11.7 µM)
MIC [18]: 5.5 µg/mL (≈ 11.7 µM)
SMILES: O=Cc1cn(-c2ccccc2)nc1-c1ccccc1OCc1cn(Cc2cccc(Cl)c2)nn1

MIC [5]: 2 µg/mL (≈ 5.29 µM)
MIC [6]: 2 µg/mL (≈ 5.29 µM)
MIC [7]: 2 µg/mL (≈ 5.29 µM)
MIC [8]: 2 µg/mL (≈ 5.29 µM)
MIC [9]: 2 µg/mL (≈ 5.29 µM)
MIC [10]: 2 µg/mL (≈ 5.29 µM)
MIC [11]: 2 µg/mL (≈ 5.29 µM)
MIC [12]: 2 µg/mL (≈ 5.29 µM)
MIC [13]: 2 µg/mL (≈ 5.29 µM)
SMILES: O=c1cc(OCc2cn(Cc3ccc([N+](=O)[O-])cc3)nn2)c2ccccc2o1

MIC [19]: 4 µg/mL (≈ 8.06 µM)
MIC [20]: 4 µg/mL (≈ 8.06 µM)
MIC [21]: 4 µg/mL (≈ 8.06 µM)
MIC [22]: 4 µg/mL (≈ 8.06 µM)
MIC [23]: 4 µg/mL (≈ 8.06 µM)
MIC [24]: 4 µg/mL (≈ 8.06 µM)
SMILES: OCCCSc1nnc(-c2nnn(-c3ccccc3Cl)c2-c2nnc(SCCCO)o2)o1

MIC [1]: 2 µg/mL (≈ 3.82 µM)
MIC [2]: 2 µg/mL (≈ 3.82 µM)
MIC [3]: 2 µg/mL (≈ 3.82 µM)
MIC [4]: 2 µg/mL (≈ 3.82 µM)
SMILES: Cc1ccc(-c2nn(-c3ccccc3)cc2/C=N/NC(=O)c2cccc(-n3cc(-c4ccccc4)nn3)c2)cc1
